The nature of data set [1]: Flash point.
A short description of data set [2]: Heat of combustion.
Data set [3] can be described thus: Lower heating value.
A short description of data set [4]: Lower flammability limit.
The nature of data set [5]: Density of oxygenate additive (main properties comparison).
The nature of data set [6]: Solubility / miscibility in diesel fuel. The data set is classed as physicochemical.
A short description of data set [7]: Solubility in gasoline or aviation turbine fuel. The data set is classed as physicochemical.

`COCCOCCOC` [DGM, diethylene glycol dimethyl ether] returned a Flash point in data set [1] of 70 °C. Besides, the Heat of combustion in data set [2] is -2.52e+07 J/kg. The molecule also returned a Lower heating value in data set [3] of 24.5 kJ/g. The Lower flammability limit in data set [4] was 1.2 % vol. Moreover, the Density in data set [5] turned out to be 937 kg/m^3.

With `COCC(COC)OC` [GTME, glycerol trimethyl ether], the “solubility in diesel fuel” value in data set [6] (diesel fuel) is roughly 100%. In addition, in data set [7], the “dissolution in gasoline or aviation turbine fuel” value is recorded as “completely dissolved”.

With glycerol dimethyl ethers [GDMEs], the “miscibility with diesel fuel” value in data set [6] (too much amount mixed with diesel fuel) is on record as “phase separation”.

The values are drawn from patent US20130133245A1, “OXYGENATE ADDITIVE FOR INTERNAL COMBUSTION ENGINE FUEL, FUEL COMPOSITION COMPRISING THE SAME AND IMPROVED PROCESS FOR PRODUCING HIGHLY METHYLATED GLYCEROL ETHERS” (priority 2011, published 2013).
